From patent publication US20020146679A1, “Method for creating endothelial cell dysfunction in cell culture” (priority 2001, published 2002) come the findings set out here.

Each structure is given as a SMILES string.

The subject of test [1] is EA hy926 endothelial cells. The test can be described thus: Tube formation assay on MATRIGEL (in vitro angiogenesis). The class given is cell-based, human. The settings on record: SNAP 200 μM co-incubated with TNFα 10 ng/mL for 6 days prior to plating on MATRIGEL
On the procedure: According to an aspect of the invention, EA hy926 (EA) cells are initially grown in standard endothelial cell culture medium consisting of MCDB 131 (Clonetics Corp.) supplemented with 10 fetal bovine serum (FBS) (Hyclone laboratories), 100 U/mL penicillin/streptomycin, 50 μg/mL gentamicin, and other endothelial growth supplements (EGM bullet kit, Clonetics Corp.). […] Cells were grown in these conditions for 6 to 7 days. EA cells are then dispersed by trypsinization, counted, suspended in EGM media containing […], and plated onto the surface of a MATRIGEL® basement membrane protein matrix (0.5 mL/well, dispensed into 24-well tissue culture plates according to the manufacturer's instructions) at a density of 5×10^5 cells per well (24 well plate). The cells were then placed in a CO2 incubator at 37° C. and observed over a 16- to 24-hour period for cell differentiation into tube-like structures resembling capillaries. […]
EBM medium and its supplement were purchased from Clonetics. […] EA cells were then dispersed by trypsinization, counted, suspended in EGM media containing 10% FBS, and plated onto the surface of a MATRIGEL® basement membrane matrix (0.5 mL/well, dispensed into 24-well tissue culture plates according to the manufacturer's instructions) at a density of 5×10^5 cells per well (24-well plate). […]

Another test concerns EA hy926 cells. The test can be described thus: Western blotting analysis of endothelial marker proteins. The class given is cell-based, human. As to conditions: SNAP 200 μM co-incubated with TNFα for 6 days. How it is done:
The whole cell lysates were generated by suspending cell pellets with protein lysis buffer containing 10 mM Tris.CI (pH 7.6), 1 mM EDTA (pH 8.0), 100 mM NaCI, 1 μg/mL aprotinin, and 100 μg/mL phenylmethylsulfonyl fluoride. The lysates were sonicated for 15 seconds at output control level 4 with Sonifier 450 model manufactured by VWR Scientific products. Fifty microgram lysates protein for each sample was electrophoretically separated in 8% to 16% Tris-Glycine Gel and transferred to a nitrocellulose membrane. The proteins on the membrane were stained with PONCEAS solution to check if the proteins loading and transfer were even. The membranes were separately incubated with 5% dry milk Phosphate-buffered saline (PBS) at room temperature for 2 hours and followed by overnight incubation at 4° C. with fresh 5% dry milk PBS containing primary antibodies at 1:2000 dilution. The peroxidase conjugated secondary antibodies was diluted at 1:4000 dilution with 5% PBS buffer. The incubation with secondary antibody was carried out at room temperature for 1 hour. The membranes were then subject to staining with ECL solution and exposure to films.
A general note: Immunoblotting shows a protein as a band on a membrane.

Regarding `CC(=O)NC(C(=O)O)C(C)(C)SN=O` (racemic) [SNAP, S-Nitroso-N-acetyl-D, L-penicillamine, reference compound], the “tube formation / protection from TNFα-induced dysfunction” value in test [1] is “protects cells from TNFα induced dysfunction”. Also, in the test with EA hy926 cells, the PAI-1 protein expression entry is “reduces”, the VCAM-1 protein expression result was “reduces” and the caveolin-1 protein expression entry is reported as “reduces”.
